From PMC5802362 (Amino acids, 2016)

Tested on: BChE and AChE
Assay: not given
Conditions: ref Saxena et al. 1997; cited from earlier work

Row | Compound | Difference in the KI value between BChE and AChE [fold]
1 | CCN(CC)C(C)CN1c2ccccc2Sc2ccccc21 (centres unmarked) [ethopropazine] | 9000

Biological target: butyrylcholinesterase (Equus caballus, UniProt P81908)
Assay: Inhibition constant
Format: biochemical, equine
Conditions: BChE, 100 µM butyrylthiocholine, 2 % methanol, 25 °C, pH 7.5

butyrylcholinesterase, sequence (P81908 whole entry): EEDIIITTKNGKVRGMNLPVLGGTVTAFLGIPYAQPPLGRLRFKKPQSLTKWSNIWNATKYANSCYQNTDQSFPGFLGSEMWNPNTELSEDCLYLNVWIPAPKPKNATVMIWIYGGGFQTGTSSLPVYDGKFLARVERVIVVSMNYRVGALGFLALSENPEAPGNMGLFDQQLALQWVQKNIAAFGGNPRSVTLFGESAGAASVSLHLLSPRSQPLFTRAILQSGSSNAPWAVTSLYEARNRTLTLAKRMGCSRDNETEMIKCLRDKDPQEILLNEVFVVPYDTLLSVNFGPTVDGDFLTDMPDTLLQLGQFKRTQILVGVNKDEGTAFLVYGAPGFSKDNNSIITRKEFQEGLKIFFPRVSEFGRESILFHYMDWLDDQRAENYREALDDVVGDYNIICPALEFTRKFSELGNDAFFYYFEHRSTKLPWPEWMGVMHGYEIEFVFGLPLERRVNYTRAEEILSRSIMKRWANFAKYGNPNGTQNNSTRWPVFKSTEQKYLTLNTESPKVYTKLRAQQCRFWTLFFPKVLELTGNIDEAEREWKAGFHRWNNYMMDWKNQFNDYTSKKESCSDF

Row | Compound | Ki [µM]
2 | CC(C)C[C@H](NC(=O)OCc1ccccc1)C(=O)O [Cbz-Leu-O^−] | 1150 ± 130
3 | NCCCC[C@H](NC(=O)OCc1ccccc1)C(=O)O [Cbz-Lys-O^−] | 1540 ± 502
4 | CC[C@H](C)[C@H](NC(=O)OCC1c2ccccc2-c2ccccc21)C(=O)O [Fmoc-Ile-O^−] | 194 ± 13
5 | CC(C)C[C@H](NC(=O)OCC1c2ccccc2-c2ccccc21)C(=O)O [Fmoc-Leu-O^−] | 115 ± 11
6 | NCCCC[C@H](NC(=O)OCC1c2ccccc2-c2ccccc21)C(=O)O [Fmoc-Lys-O^−] | 150 ± 10
7 | O=C(N[C@@H](Cc1ccccc1)C(=O)O)OCC1c2ccccc2-c2ccccc21 [Fmoc-Phe-O^−] | 330 ± 15
8 | O=C(N[C@@H](Cc1c[nH]c2ccccc12)C(=O)O)OCC1c2ccccc2-c2ccccc21 [Fmoc-Trp-O^−] | 193 ± 21
9 | O=C(N[C@@H](Cc1ccc(O)cc1)C(=O)O)OCC1c2ccccc2-c2ccccc21 [Fmoc-Tyr-O^−] | 307 ± 13
10 | CC(C)[C@H](NC(=O)OCC1c2ccccc2-c2ccccc21)C(=O)O [Fmoc-Val-O^−] | 313 ± 14

Tested on: not given
Assay: not given
Conditions: calculated with VOIDOO; ref Saxena et al. 1997; cited from earlier work

Row | Compound | van der Waals volume [Å^3]
11 | CCN(CC)C(C)CN1c2ccccc2Sc2ccccc21 (centres unmarked) [ethopropazine] | 317.6
